Measured values reported in patent US11903386B2, “Strigolactone analogs and their usage in plant control” (King Abdullah University of Science and Technology, priority 2016, dated 2024).
Entries after “also recorded” stand apart in the source; their conditions may differ. Where two headings read alike, the source gives them in different places.

Assays:
rice d10 mutant = assay: Rice micro tillering bioassay, d10 mutant; assay type: in vivo; settings: comparison between compounds
Method: Rice seeds (WT, d3, d10) were surface-sterilized by washing with 70% ethanol for 1 min and then with 2.5% sodium hypochlorite for 15 min. Seeds were then rinsed thoroughly with sterile MilliQ water and incubated in water for 2 days at 30° C. in the dark. Pre-germinated seeds were transferred to filter papers containing ½ strength MS medium in 90 mm petri dishes and incubated at 30° C. under fluorescent white light (130-180 μM m^−2 s^−1) for one week. Seven day-old seedlings were transferred to 50 ml falcon tubes (one seedling per tube) containing modified half-strength Hoagland nutrient solution and grown in greenhouse. Plants were treated with MPs at 2.5 μM-2.5×10-7 μM, using GR24 as positive control. The compounds were applied six times, twice a week. Number of tillers per plant, plant height and fresh biomass were measured at final harvest.
Statistical analyses were carried out using statistical software package R (version 3.2.2). Dose-response curves and Half Maximum Effective Concentrations (EC50) were calculated to determine optimum amount of MPs. Synthetic strigolactone analog GR24 was used as reference to estimate efficacy of selected compounds. EC50 and estimated response were calculated using drc package (https://cran.r390 project.org/web/packages/drc/) with a Four Parameter Logistic Curve (Dose Response Curve) (Ritz and Streibig, 2005).

[1] = Chemical stability of MPs in aqueous solution, monitored by HPLC; assay type: physicochemical; settings: aqueous solution pH 6.8, 21° C., monitored at 24 h intervals up to 3 weeks
Method: Aqueous solutions of MPs (50 μg ml-1; pH 6.8) were incubated at 21° C. in amber HPLC vials. For sample preparation, 50 μl of an acetone solution (1 mg ml-1) was diluted to the final concentration with methanol (425 μl), water (500 μl) and 25 μl of 1-Indanol (1.0 mg ml-1 solution in acetone) as internal standard. […] The column was operated at 35° C. with a flow rate of 0.25 ml per min. Compounds eluted from the column were detected with a Diode array detector. Relative quantity of remaining (non-degraded) product was determined by comparison to the internal standard.

OsD14 = target: T1, OsD14 (Oryza sativa subsp. japonica, UniProt Q10QA5); assay: YLG (Yoshimulactone Green) competitive hydrolysis assay; assay type: biochemical, rice
T1 construct: made in house; host or cells: E. coli BL21 (DE3)
T1 sequence (Q10QA5 1-318): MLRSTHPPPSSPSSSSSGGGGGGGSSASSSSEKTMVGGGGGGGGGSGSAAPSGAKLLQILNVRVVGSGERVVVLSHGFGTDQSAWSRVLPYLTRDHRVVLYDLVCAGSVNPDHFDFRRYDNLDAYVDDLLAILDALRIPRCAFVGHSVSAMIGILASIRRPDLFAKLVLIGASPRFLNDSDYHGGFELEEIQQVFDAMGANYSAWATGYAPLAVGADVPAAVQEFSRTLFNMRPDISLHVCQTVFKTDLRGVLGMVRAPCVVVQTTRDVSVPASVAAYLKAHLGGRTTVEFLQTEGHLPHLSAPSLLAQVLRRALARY
Source text: Striga hermonthica ShHTL7 cDNA, GenBank accession KR013127 was kindly provided by Prof. Tadao Asami (The University of Tokyo, Japan). Arabidopsis thaliana D14 (AtD14) cDNA, GenBank accession AY097402 was synthesized and cloned into pUC57 (GenScript). ShHTL7 and OsD14 cDNAs were amplified by RT-PCR using the primers shown in Table 2, digested with BamHI and XhoI, and ligated into BamHI/XhoI digested pGEX-6P-1 expression vector (GE Healthcare). Integrity of plasmids was confirmed by sequencing (KAUST Bioscience Core Lab). The plasmids were then transformed into E. coli BL21 (DE3) cells. The cells were grown in LB broth containing ampicillin ([…]), incubated at 37° C. until OD600 of 0.6 and induced with 0.1 mM isopropyl-β-D-thiogalactopyranoside (IPTG) at 16° C. for 16 h. Harvested cells were re-suspended in lysis buffer: 50 mM Tris-HCl (pH 8.0), 200 mM NaCl, 0.5% Tween-20 and 2 mM dithiothreitol (DTT). After sonication on ice for 10 mins, the lysate was centrifuged at 25,000 rpm for 30 min at 4° C. Supernatant was allowed to bind to glutathione-sepharose beads (GE Healthcare) for 2 h at 4° C., washed 3 times with buffer (50 mM Tris-HCl (pH 8.0), 200 mM NaCl, 2 mM DTT), and eluted by cleaving GST moiety with PreScission™ Protease (GE Healthcare) at 4° C. overnight. Eluted protein was further purified by gel filtration using HiLoad 16/60 Superdex200 prep grade column (GE Healthcare) on an AKTA prime system (GE Healthcare) in gel filtration buffer (10 mM HEPES pH 7.5, 50 mM KCl and 2 mM DTT). Protein eluted as a sharp single peak and purity was judged by 4-15% SDS-PAGE (Bio-Rad). Purified protein was concentrated using an Amicon 10K filter unit (Merck Millipore) and stored at −80° C. until use. Similar expression and purification protocol was followed for OsD14 protein, except that OsD14 was eluted from Glutathione resins using 0.2 mM reduced Glutathione (Sigma) without cutting GST tag.
In vitro YLG hydrolysis assays were performed as described by Tsuchiya et al., 2015. Hydrolysis assays were carried out using 0.15 μM of recombinant protein OsD14 in a reaction buffer (100 mM PBS buffer, pH 7.3) with 0.1% dimethylsulfoxide (DMSO) at a 300 μl volume on a 96-well black plate (Thermo). For competitive assays, (±) GR24 and (±) MPs at range between 0.03 to 10 μM (or 100 μM) were co-incubated with 0.3 μM of YLG and reacted at 30° C. incubator for 15 min. Fluorescent intensity was measured with excitation at 485 nm and detected at 535 nm. IC50 values were calculated online (http://www.ic50.tk/index.html). Later, values were converted to the existing conditions when treated by 1.0 μM of recombinant proteins.

Arabidopsis seedlings = assay: Arabidopsis lateral root density and primary root length; assay type: in vivo; settings: 1.0 μM, 8 days old seedlings
Method: Sterilized Arabidopsis seeds were sown on half strength MS (with 0.5% sucrose+1% agar, 0.5 g L^−1 MES, pH 5.7) plates supplemented with GR24 or MPs (at 1.0 μM). Plates were stored at 4° C. in darkness for 3 days and then vertically grown at 22° C. in Percival incubator under long day condition (16 h at 22° C./8 h at 16° C. day/night, 60% relative humidity, 4000-5000 LUX white light) for 8 days. For determining the effect on lateral root density and primary root length, at least 30 seedlings were measured using publically available ImageJ software (http://rsbweb.nih.gov/ij/) after scanning roots.

Structure (SMILES)	Relative activity in inhibiting rice tillering (d10) (rice d10 mutant)	Stability in comparison to GR24 [1]	IC50 (OsD14)	Increase of primary root length (Arabidopsis seedlings)	IC50 (OsD14; with SE (n=3), read-out: IC50, competitive inhibition of OsD14 mediated YLG hydrolysis)	Reduction of number of lateral roots / lateral root density (Arabidopsis seedlings)
COC(=O)/C(=C/OC1C=C(C)C(=O)O1)c1ccccc1 (racemic) [MP3, (E)-methyl 3-(4-methyl-5-oxo-2,5-dihydrofuran-2-yloxy)-2-phenylacrylate]	the most active compound; also recorded: most pronounced inhibitory effect on tillering	more stable than GR24	10.1 ± 2.94 µM	weaker activity than GR24 and MP8	–	–
COC(=O)/C(=C/OC1C=C(C)C(=O)O1)c1ccc([N+](=O)[O-])cc1 (racemic) [MP1, (E)-methyl 3-(4-methyl-5-oxo-2,5-dihydrofuran-2-yloxy)-2-(4-nitrophenyl)acrylate]	weaker than GR24	slightly less stable than GR24	–	the most active compound; also recorded: more efficient than GR24	2.41 ± 0.175 µM	activity higher than that of GR24; also recorded: more efficient than GR24
COC(=O)/C(=C/OC1C=C(C)C(=O)O1)c1ccc(Cl)cc1 (centres unmarked) [MP7]	more active than GR24	more stable than GR24	4.46 ± 0.8 µM	more efficient than GR24	–	slightly more active than GR24; also recorded: more efficient than GR24
